Data on 20 molecules can be found in patent US7271171B2, “Adenosine A3 receptor modulators” (King Pharmaceuticals Research and Development, Inc., priority 1998, dated 2007).

One may read the Ki as a dissociation constant, usually derived from enzyme kinetics or from competition with a known ligand.

Where two headings read alike, the source gives them in different places.

The target in one assay is T1, rA2A adenosine receptor (Rattus norvegicus, UniProt P30543).
T1 construct: membranes of rat striatum (80-100 μmg of protein/assay); from tissue; host or cells: striatum of male Wistar rats
The assay is described as follows: Rat A2A adenosine receptor binding assay, [3H]SCH58261 displacement, rat striatum membranes.

In assay [1] the target is T2, human recombinant A3 adenosine receptor (Homo sapiens, UniProt P0DMS8).
T2 sequence (P0DMS8 1-318): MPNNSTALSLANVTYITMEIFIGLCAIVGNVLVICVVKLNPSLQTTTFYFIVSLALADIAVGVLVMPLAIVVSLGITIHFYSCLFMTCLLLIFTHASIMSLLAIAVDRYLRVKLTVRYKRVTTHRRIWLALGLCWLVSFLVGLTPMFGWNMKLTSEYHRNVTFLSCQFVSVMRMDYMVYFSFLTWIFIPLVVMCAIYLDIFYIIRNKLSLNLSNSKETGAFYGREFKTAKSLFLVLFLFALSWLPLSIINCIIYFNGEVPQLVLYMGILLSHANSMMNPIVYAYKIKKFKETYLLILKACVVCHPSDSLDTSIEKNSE
The assay is described as follows: Human cloned A3 adenosine receptor binding assay, [125I]AB-MECA, HEK-293 membranes. Details: USA; host or cells: HEK-293. As to conditions: for Ki: HEK-293 membranes, [125I]AB-MECA, read-out: hA3 (Ki); for rA1/hA3 / rA2A/hA3: selectivity ratio of Ki values.

For a further assay, the target named is T3, rA1 adenosine receptor (Rattus norvegicus, UniProt P25099).
T3 construct: membranes of rat brain (150-200 μg- of protein/assay); from tissue; host or cells: whole brain of male Wistar rats
T3 sequence (P25099 1-326): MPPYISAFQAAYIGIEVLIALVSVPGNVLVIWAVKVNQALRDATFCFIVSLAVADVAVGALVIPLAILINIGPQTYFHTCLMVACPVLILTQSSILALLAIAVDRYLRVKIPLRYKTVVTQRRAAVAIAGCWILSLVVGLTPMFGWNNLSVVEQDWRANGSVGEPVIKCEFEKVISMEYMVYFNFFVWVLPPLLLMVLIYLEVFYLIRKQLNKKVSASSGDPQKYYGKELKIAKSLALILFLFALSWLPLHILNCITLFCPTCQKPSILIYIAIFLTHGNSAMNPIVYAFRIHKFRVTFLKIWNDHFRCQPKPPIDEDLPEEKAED
The assay is described as follows: Rat A1 adenosine receptor binding assay, [3H]CHA displacement, rat brain membranes.

Where [2] appears, read: rat striatum membranes, [3H]SCH58261, read-out: rA2A (Ki).

T1 sequence (P30543 whole entry): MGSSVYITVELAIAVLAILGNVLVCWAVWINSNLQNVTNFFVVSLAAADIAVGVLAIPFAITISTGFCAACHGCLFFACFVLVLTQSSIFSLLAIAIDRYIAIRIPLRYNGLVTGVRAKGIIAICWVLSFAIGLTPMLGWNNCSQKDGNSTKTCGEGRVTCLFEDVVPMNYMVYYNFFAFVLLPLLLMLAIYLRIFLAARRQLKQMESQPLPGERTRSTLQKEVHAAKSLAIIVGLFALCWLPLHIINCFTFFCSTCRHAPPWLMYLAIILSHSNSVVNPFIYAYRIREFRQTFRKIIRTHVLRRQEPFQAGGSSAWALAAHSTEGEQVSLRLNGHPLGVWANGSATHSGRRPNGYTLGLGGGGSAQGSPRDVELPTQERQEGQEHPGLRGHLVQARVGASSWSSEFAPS
Description for rA1 adenosine receptor: (§1) Male Wistar rats (200-250 g) were decapitated and the whole brain and striatum dissected on ice. […] The homogenate was centrifuged at 48,000 for 10 min, and the pellet was resuspended in the same buffer containing 2 IU/mL adenosine deaminase. After 30 min incubation at 37° C., the membranes were centrifuged and pellets were stored at −80° C. Prior to freezing, an aliquot of homogenate was removed for protein assay with bovine albumin as reference standard. Binding assays were performed on rat brain and striatum membranes respectively, in the presence of 10 mM MgCl2 at 25° C.
(§2) Separation of bound from free radio ligand was performed by rapid filtration through Whatman GF/B filters which were washed three times with ice-cold buffer. Filter bound radioactivity was measured by scintillation spectrometry after addition of 5 mL of Aquassure. […] Ki values were calculated from the Cheng-Prusoff equation. All binding data were analyzed using the nonlinear regression curve-fitting computer program LIGAND.
Description for rA2A adenosine receptor: as §1, §2

As for `Cn1cc2c(nc(N)n3nc(-c4ccco4)nc23)n1` [Compound 34, 5-Amino-8-methyl-2-(2-furyl)-pyrazolo[4,3-e]1,2,4-triazolo[1,5-c]pyrimidine], the inhibition constant Ki at rA2A adenosine receptor (setting [2]) is 30.6 nM. Also, in assay [1], the Ki stood at 557 nM, the rA1/hA3 is listed as 0.56 and the rA2A/hA3 is given as 0.05.
On rA1 adenosine receptor, `CCn1cc2c(nc(N)n3nc(-c4ccco4)nc23)n1` [Compound 35, 5-Amino-8-ethyl-2-(2-furyl)-pyrazolo[4,3-e]1,2,4-triazolo[1,5-c]pyrimidine] gave a Ki of 95.1 nM. Besides, the Ki on rA2A adenosine receptor (setting [2]) came out at 11.2 nM. In assay [1], the Ki was 3580 nM, the rA1/hA3 is given as 0.03 and the rA2A/hA3 is listed as 0.003.
`CCCn1cc2c(nc(N)n3nc(-c4ccco4)nc23)n1` [Compound 36, 5-Amino-8-propyl-2-(2-furyl)-pyrazolo[4,3-e]1,2,4-triazolo[1,5-c]pyrimidine]: the Ki at rA1 adenosine receptor stood at 139 nM. For the same molecule, the Ki at rA2A adenosine receptor (setting [2]) worked out at 20.2 nM. For the same molecule, in assay [1], the Ki was determined as 613 nM, the rA1/hA3 is listed as 0.22 and the rA2A/hA3 is on record as 0.03.
Turning to `CCCCn1cc2c(nc(N)n3nc(-c4ccco4)nc23)n1` [Compound 37, 5-Amino-8-butyl-2-(2-furyl)-pyrazolo[4,3-e]1,2,4-triazolo[1,5-c]pyrimidine], at rA1 adenosine receptor, the Ki turned out to be 26.3 nM. In assay [1], the Ki is 1110 nM, the rA1/hA3 was found to be 0.02 and the rA2A/hA3 is recorded as 0.003.
`CC(C)CCn1cc2c(nc(N)n3nc(-c4ccco4)nc23)n1` [Compound 38, 5-Amino-8-isopentyl-2-(2-furyl)-pyrazolo[4,3-e]1,2,4-triazolo[1,5-c]pyrimidine]: the Ki was found to be 8.09 nM on rA1 adenosine receptor and 1160 nM in assay [1]. In assay [1] (discussion of Table 1), the “affinity at human adenosine A3 receptor subtype (in words)” value was “low affinity”.
As to `CC(C)=CCn1cc2c(nc(N)n3nc(-c4ccco4)nc23)n1` [Compound 39, 5-Amino-8-(2-isopentenyl)-2-(2-furyl)-pyrazolo[4,3-e]1,2,4-triazolo[1,5-c]pyrimidine], the Ki at rA1 adenosine receptor amounted to 10.1 nM. For the same molecule, the Ki on rA2A adenosine receptor (setting [2]) is 1.45 nM. In assay [1], the Ki was 887 nM, the rA1/hA3 is 0.01 and the rA2A/hA3 was determined as 0.001.
For the molecule `Nc1nc2nn(CCc3ccccc3)cc2c2nc(-c3ccco3)nn12` [Compound 40, 5-Amino-8-(2-(phenyl)ethyl)-2-(2-furyl)-pyrazolo[4,3-e]1,2,4-triazolo[1,5-c]pyrimidine], the Ki at rA1 adenosine receptor came to 2.16 nM; at rA2A adenosine receptor (read-out: rA2A (Ki)), 0.7 nM; in assay [1], 2780 nM. Further, the “affinity for A2A adenosine receptors (in words)” value at rA2A adenosine receptor is on record as “great affinity”. The “affinity at human adenosine A3 receptor subtype (in words)” value in assay [1] (discussion of Table 1) was “low affinity”.
Turning to `Nc1nc2nn(CCCc3ccccc3)cc2c2nc(-c3ccco3)nn12` [Compound 41, 5-Amino-8-(3-(phenyl)propyl)-2-(2-furyl)-pyrazolo[4,3-e]1,2,4-triazolo[1,5-c]pyrimidine], the Ki at rA1 adenosine receptor is 11.1 nM; at rA2A adenosine receptor (setting [2]) it was 0.59 nM; in assay [1] it was 2670 nM. Moreover, in assay [1] (discussion of Table 1), the “affinity at human adenosine A3 receptor subtype (in words)” value is reported as “low affinity”.
Regarding `Cn1cc2c(nc(NC(=O)Nc3cccc(Cl)c3)n3nc(-c4ccco4)nc23)n1` [Compound 42, 5-[[(3-Chlorophenyl)amino]carbonyl]amino-8-methyl-2-(2-furyl)-pyrazolo[4,3-e]1,2,4-triazolo[1,5-c]pyrimidine], the Ki at rA1 adenosine receptor amounted to 5050 nM. In addition, the Ki at rA2A adenosine receptor (setting [2]) is more than 10000 nM. Moreover, in assay [1], the Ki came out at 0.22 nM, the rA1/hA3 is 22,931 and the rA2A/hA3 is >45,454.
As for `COc1ccc(NC(=O)Nc2nc3nn(C)cc3c3nc(-c4ccco4)nn23)cc1` [Compound 43, 5-[[(4-Methoxyphenyl)amino]carbonyl]amino-8-methyl-2-(2-furyl)-pyrazolo[4,3-e]1,2,4-triazolo[1,5-c]pyrimidine], the results for the Ki (on rA1 adenosine receptor; at rA2A adenosine receptor (setting [2]); in assay [1]) were more than 10000 nM, more than 10000 nM and 0.1 nM, respectively. Also, the rA1/hA3 in assay [1] is >100,000. Besides, the rA2A/hA3 in assay [1] is listed as >100,000.
As to `CCn1cc2c(nc(NC(=O)Nc3cccc(Cl)c3)n3nc(-c4ccco4)nc23)n1` [Compound 44, 5-[[(3-Chlorophenyl)amino]carbonyl]amino-8-ethyl-2-(2-furyl)-pyrazolo[4,3-e]1,2,4-triazolo[1,5-c]pyrimidine], on rA1 adenosine receptor, the affinity, expressed as Ki, was 2700 nM. Also, the Ki at rA2A adenosine receptor (setting [2]) stood at 2800 nM. Also, in assay [1], the Ki came to 2.09 nM, the rA1/hA3 is reported as 1,291 and the rA2A/hA3 is given as 1,339.
On to `CCn1cc2c(nc(NC(=O)Nc3ccc(OC)cc3)n3nc(-c4ccco4)nc23)n1` [Compound 45, 5-[[(4-Methoxyphenyl)amino]carbonyl]amino-8-ethyl-2-(2-furyl)-pyrazolo[4,3-e]1,2,4-triazolo[1,5-]pyrimidine], for which, in assay [1], the Ki came to 0.28 nM, the rA1/hA3 is >35,714 and the rA2A/hA3 was >35,714. In addition, in assay [1] (discussion of Table 1), the “affinity and selectivity for the A3 receptor subtype (in words)” value is “high affinity and selectivity”.
`CCCn1cc2c(nc(NC(=O)Nc3cccc(Cl)c3)n3nc(-c4ccco4)nc23)n1` [Compound 46, 5-[[(3-Chlorophenyl)amino]carbonyl]amino-8-propyl-2-(2-furyl)-pyrazolo[4,3-e]1,2,4-triazolo[1,5-c]pyrimidine] gave a Ki on rA1 adenosine receptor of 1580 nM. Besides, the Ki at rA2A adenosine receptor (setting [2]) is less than 10000 nM. In assay [1], the Ki came to 0.49 nM, the rA1/hA3 is 3,228 and the rA2A/hA3 was >20,408.
On to `CCCn1cc2c(nc(NC(=O)Nc3ccc(OC)cc3)n3nc(-c4ccco4)nc23)n1` [Compound 47, 5-[[(4-Methoxyphenyl)amino]carbonyl]amino-8-propyl-2-(2-furyl)-pyrazolo[4,3-e]1,2,4-triazolo[1,5-c]pyrimidine], for which the Ki at rA1 adenosine receptor was more than 10000 nM.
On to `CCCCn1cc2c(nc(NC(=O)Nc3cccc(Cl)c3)n3nc(-c4ccco4)nc23)n1` [Compound 48, 5-[[(3-Chlorophenyl)amino]carbonyl]amino-8-butyl-2-(2-furyl)-pyrazolo[4,3-e]1,2,4-triazolo[1,5-c]pyrimidine], for which the Ki on rA1 adenosine receptor came to 1520 nM. Moreover, the Ki at rA2A adenosine receptor (setting [2]) came to 498 nM. Also, in assay [1], the Ki worked out at 0.75 nM, the rA1/hA3 was 2,020 and the rA2A/hA3 was 664.
Turning to `CCCCn1cc2c(nc(NC(=O)Nc3ccc(OC)cc3)n3nc(-c4ccco4)nc23)n1` [Compound 49, 5-[[(4-Methoxyphenyl)amino]carbonyl]amino-8-butyl-2-(2-furyl)-pyrazolo[4,3-e]1,2,4-triazolo[1,5-c]pyrimidine], the inhibitory constant (Ki) worked out at 2100 nM at rA1 adenosine receptor, 649 nM on rA2A adenosine receptor and 0.3 nM in assay [1].
As to `CC(C)CCn1cc2c(nc(NC(=O)Nc3cccc(Cl)c3)n3nc(-c4ccco4)nc23)n1` [Compound 50, 5-[[(3-Chlorophenyl)amino]carbonyl]amino-8-isopentyl-2-(2-furyl)-pyrazolo[4,3-e]1,2,4-triazolo[1,5-c]pyrimidine], the Ki on rA1 adenosine receptor was found to be 1650 nM; at rA2A adenosine receptor (setting [2]) it was 1200 nM; in assay [1] it was 81.1 nM. Further, the rA1/hA3 in assay [1] was determined as 20. In addition, the rA2A/hA3 in assay [1] came to 15.
For `COc1ccc(NC(=O)Nc2nc3nn(CCC(C)C)cc3c3nc(-c4ccco4)nn23)cc1` [Compound 51, 5-[[(4-Methoxyphenyl)amino]carbonyl]amino-8-isopentyl-2-(2-furyl)-pyrazolo[4,3-e]1,2,4-triazolo[1,5-c]pyrimidine] the same measures were 476 nM, 376 nM, 29.6 nM, 16 and 13.
On the same counts, the results for `CC(C)=CCn1cc2c(nc(NC(=O)Nc3cccc(Cl)c3)n3nc(-c4ccco4)nc23)n1` [Compound 52] are 3740 nM, 1450 nM, 147 nM, 25.4 and 9.8.
For `COc1ccc(NC(=O)Nc2nc3nn(CC=C(C)C)cc3c3nc(-c4ccco4)nn23)cc1` [Compound 53, 5-[[(4-Methoxyphenyl)amino]carbonyl]amino-8-(2-isopentenyl)-2-(2-furyl)-pyrazolo[4,3-e]1,2,4-triazolo[1,5-c]pyrimidine] the same measures were 5300 nM, more than 10000 nM, 29.6 nM, 179 and more than 338.
